The source of these data is patent US20080234262A1 (Wyeth, priority 2007, published 2008).

One may read the IC50 as the concentration that inhibits the measured activity by half.

The structures appear in SMILES notation.

The target in experiment [1] is PI3K (Homo sapiens, UniProt P42336). Description: Fluorescence polarization assay for PI3K.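 Note: PI3K kinase reaction on PIP2 with ATP, 30-60 min, product sensed by GST-GRP with red probe in fluorescence polarization (mP), controls without enzyme and at zero time.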 The note with it: PI3Kα; read-out: PI3Kα IC50. The class given is biochemical. For orientation: Polarisation of emitted light reports the rotation of a fluorescent probe.
The subject of experiment [2] is prostate line LNCap. Description: In vitro cell culture growth assay (MTS), LNCap.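 Note: viable cell density read by absorbance at 490 nm, growth expressed as percent of vehicle-treated cells on the same plate.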 The class given is cell-based, human. The note with it: Homo sapiens, LNCaP, 72 h, LNCap cells, three days after drug treatment.
Experiment [3] concerns breast line MDA468. Description: In vitro cell culture growth assay (MTS), MDA468. The note with it: Homo sapiens, 72 h, MDA468 cells, three days after drug treatment. It counts as cell-based, human. The method in brief:
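Steps: plate cells; add inhibitors the next day; incubate 3 days; add MTS dye, which viable cells convert metabolically; measure absorbance at 490 nm; calculate percent of control growth relative to vehicle-treated cells in the same plate.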

Sequence of PI3K (P42336 whole entry): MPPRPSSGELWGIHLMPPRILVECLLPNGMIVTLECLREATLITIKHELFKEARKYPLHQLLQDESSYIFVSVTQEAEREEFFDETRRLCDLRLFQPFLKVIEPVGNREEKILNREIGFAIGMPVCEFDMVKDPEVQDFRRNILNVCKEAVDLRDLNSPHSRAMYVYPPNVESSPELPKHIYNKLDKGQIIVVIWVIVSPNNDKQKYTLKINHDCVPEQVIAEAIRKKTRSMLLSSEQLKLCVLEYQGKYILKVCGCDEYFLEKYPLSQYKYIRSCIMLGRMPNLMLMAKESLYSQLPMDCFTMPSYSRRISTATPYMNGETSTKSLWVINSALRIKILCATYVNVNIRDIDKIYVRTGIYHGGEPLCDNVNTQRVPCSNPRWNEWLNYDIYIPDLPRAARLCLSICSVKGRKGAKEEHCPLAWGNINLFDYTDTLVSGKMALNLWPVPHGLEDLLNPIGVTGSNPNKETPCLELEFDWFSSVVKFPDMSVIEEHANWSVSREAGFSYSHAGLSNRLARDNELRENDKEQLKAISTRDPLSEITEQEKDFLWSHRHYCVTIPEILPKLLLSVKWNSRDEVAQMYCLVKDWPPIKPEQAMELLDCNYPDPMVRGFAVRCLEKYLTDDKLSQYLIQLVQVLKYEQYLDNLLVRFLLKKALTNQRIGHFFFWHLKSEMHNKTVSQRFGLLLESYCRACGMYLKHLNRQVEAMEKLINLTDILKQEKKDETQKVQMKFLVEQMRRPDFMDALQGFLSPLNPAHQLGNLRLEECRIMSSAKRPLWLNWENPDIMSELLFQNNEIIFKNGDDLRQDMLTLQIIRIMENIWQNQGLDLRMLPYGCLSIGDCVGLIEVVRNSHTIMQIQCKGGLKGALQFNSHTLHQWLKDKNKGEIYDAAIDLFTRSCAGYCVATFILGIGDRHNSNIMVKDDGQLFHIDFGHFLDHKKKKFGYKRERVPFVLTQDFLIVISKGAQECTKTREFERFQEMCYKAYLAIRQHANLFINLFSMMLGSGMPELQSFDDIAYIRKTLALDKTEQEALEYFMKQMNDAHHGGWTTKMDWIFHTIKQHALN
Sequence of PI3K (P27986 whole entry partner): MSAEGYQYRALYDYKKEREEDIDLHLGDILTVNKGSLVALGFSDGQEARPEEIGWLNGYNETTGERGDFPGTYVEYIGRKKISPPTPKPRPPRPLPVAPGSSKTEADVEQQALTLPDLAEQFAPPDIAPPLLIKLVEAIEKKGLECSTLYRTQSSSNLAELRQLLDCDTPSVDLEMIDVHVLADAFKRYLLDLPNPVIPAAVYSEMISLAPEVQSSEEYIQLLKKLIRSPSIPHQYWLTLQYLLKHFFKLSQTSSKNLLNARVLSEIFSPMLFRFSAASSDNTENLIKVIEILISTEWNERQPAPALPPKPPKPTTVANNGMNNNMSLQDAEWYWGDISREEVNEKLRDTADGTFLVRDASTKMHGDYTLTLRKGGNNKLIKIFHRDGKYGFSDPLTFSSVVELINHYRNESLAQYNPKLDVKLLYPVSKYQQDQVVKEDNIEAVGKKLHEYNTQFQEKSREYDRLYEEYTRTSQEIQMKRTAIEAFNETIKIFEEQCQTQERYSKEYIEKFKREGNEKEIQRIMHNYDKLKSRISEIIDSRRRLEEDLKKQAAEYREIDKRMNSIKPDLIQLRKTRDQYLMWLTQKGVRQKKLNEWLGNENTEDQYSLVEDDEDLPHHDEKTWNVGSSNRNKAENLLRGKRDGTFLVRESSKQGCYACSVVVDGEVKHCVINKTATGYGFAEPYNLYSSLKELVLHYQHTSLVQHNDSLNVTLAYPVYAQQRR

For the compound `CNC(=O)Nc1ccc(-c2nc(N3CCOCC3)c3cnn(C4CCS(=O)(=O)CC4)c3n2)cc1` [Compound 869, 1-{4-[1-(1,1-dioxidotetrahydro-2H-thiopyran-4-yl)-4-morpholin-4-yl-1H-pyrazolo[3,4-d]pyrimidin-6-yl]phenyl}-3-methylurea], the IC50 in experiment [1] was 0.074 µM; in experiment [2] it was 0.54 µM; in experiment [3] it was 0.59 µM.
On the same counts, the results for `CC(C)(C)OC(=O)N1CCC[C@H](n2ncc3c(N4CCOCC4)nc(-c4ccc(N)cc4)nc32)C1` [Compound 870, tert-butyl (3S)-3-[6-(4-aminophenyl)-4-morpholin-4-yl-1H-pyrazolo[3,4-d]pyrimidin-1-yl]piperidine-1-carboxylate] are 0.549 µM, 7.6 µM and 26 µM.
For `CC(C)(C)OC(=O)N1CCC[C@@H](n2ncc3c(N4CCOCC4)nc(-c4ccc(N)cc4)nc32)C1` [Compound 871, tert-butyl (3R)-3-[6-(4-aminophenyl)-4-morpholin-4-yl-1H-pyrazolo[3,4-d]pyrimidin-1-yl]piperidine-1-carboxylate], in that order: 4.3 µM, 7.5 µM and 2.3 µM.
On the same counts, the results for `CNC(=O)Nc1ccc(-c2nc(N3CCOCC3)c3cnn([C@H]4CCCN(C(=O)OC(C)(C)C)C4)c3n2)cc1` [Compound 872, tert-butyl (3S)-3-(6-{4-[(methylcarbamoyl)amino]phenyl}-4-morpholin-4-yl-1H-pyrazolo[3,4-d]pyrimidin-1-yl)piperidine-1-carboxylate] are 0.169 µM, 0.27 µM and 1 µM.
Regarding `CNC(=O)Nc1ccc(-c2nc(N3CCOCC3)c3cnn([C@H]4CCCNC4)c3n2)cc1` [Compound 873, 1-methyl-3-(4-{4-morpholin-4-yl-1-[(3S)-piperidin-3-yl]-1H-pyrazolo[3,4-d]pyrimidin-6-yl}phenyl)urea], the IC50 worked out at 0.074 µM in experiment [1], 0.41 µM in experiment [2] and 0.73 µM in experiment [3].
For `CNC(=O)Nc1ccc(-c2nc(N3CCOCC3)c3cnn([C@@H]4CCCN(C(=O)OC(C)(C)C)C4)c3n2)cc1` [Compound 874, tert-butyl (3R)-3-(6-{4-[(methylcarbamoyl)amino]phenyl}-4-morpholin-4-yl-1H-pyrazolo[3,4-d]pyrimidin-1-yl)piperidine-1-carboxylate], in that order: 0.294 µM, 0.4 µM and 1.1 µM.
On the same counts, the results for `CNC(=O)Nc1ccc(-c2nc(N3CCOCC3)c3cnn([C@@H]4CCCNC4)c3n2)cc1` [Compound 875, 1-methyl-3-(4-{4-morpholin-4-yl-1-[(3R)-piperidin-3-yl]-1H-pyrazolo[3,4-d]pyrimidin-6-yl}phenyl)urea] are 0.046 µM, 1.1 µM and 1.25 µM.
On the same counts, the results for `CNC(=O)Nc1ccc(-c2nc(N3CCOCC3)c3cnn(C4CCN(C(=O)OCC(C)(C)C)CC4)c3n2)cc1` [Compound 876, 2,2-dimethylpropyl 4-(6-{4-[(methylcarbamoyl)amino]phenyl}-4-morpholin-4-yl-1H-pyrazolo[3,4-d]pyrimidin-1-yl)piperidine-1-carboxylate] are 0.087 µM, 0.11 µM and 0.35 µM.
As for `CC(C)(C)COC(=O)N1CCC(n2ncc3c(N4CCOCC4)nc(-c4ccc(NC(=O)Nc5cccnc5)cc4)nc32)CC1` [Compound 877, 2,2-dimethylpropyl 4-(4-morpholin-4-yl-6-{4-[(pyridin-3-ylcarbamoyl)amino]phenyl}-1H-pyrazolo[3,4-d]pyrimidin-1-yl)piperidine-1-carboxylate], the IC50 in experiment [1] came out at 0.032 µM; in experiment [2], 0.12 µM; in experiment [3], 0.4 µM.
As for `CNC(=O)Nc1ccc(-c2nc(N3CCOCC3)c3cnn(C4CCN(C(=O)OCCF)CC4)c3n2)cc1` [Compound 878, 2-fluoroethyl 4-(6-{4-[(methylcarbamoyl)amino]phenyl}-4-morpholin-4-yl-1H-pyrazolo[3,4-d]pyrimidin-1-yl)piperidine-1-carboxylate], the IC50 in experiment [1] is 0.054 µM; in experiment [2], 0.04 µM; in experiment [3] it was 0.12 µM.
With `O=C(Nc1ccc(-c2nc(N3CCOCC3)c3cnn(C4CCN(C(=O)OCCF)CC4)c3n2)cc1)Nc1cccnc1` [Compound 879, 2-fluoroethyl 4-(4-morpholin-4-yl-6-{4-[(pyridin-3-ylcarbamoyl)amino]phenyl}-1H-pyrazolo[3,4-d]pyrimidin-1-yl)piperidine-1-carboxylate], the IC50 turned out to be 0.012 µM in experiment [1], 0.0039 µM in experiment [2] and 0.034 µM in experiment [3].
For `CNC(=O)Nc1ccc(-c2nc(N3CCOCC3)c3cnn(C4CCN(C(=O)OCc5ccccc5)CC4)c3n2)cc1` [Compound 880, benzyl 4-(6-{4-[(methylcarbamoyl)amino]phenyl}-4-morpholin-4-yl-1H-pyrazolo[3,4-d]pyrimidin-1-yl)piperidine-1-carboxylate], in that order: 0.02 µM, 0.03 µM and 0.22 µM.
Turning to `O=C(Nc1ccc(-c2nc(N3CCOCC3)c3cnn(C4CCN(C(=O)OCc5ccccc5)CC4)c3n2)cc1)Nc1cccnc1` [Compound 881, benzyl 4-(4-morpholin-4-yl-6-{4-[(pyridin-3-ylcarbamoyl)amino]phenyl}-1H-pyrazolo[3,4-d]pyrimidin-1-yl)piperidine-1-carboxylate], the 50% inhibitory concentration (IC50) in experiment [1] worked out at 0.007 µM; in experiment [2] it was 0.06 µM; in experiment [3] it was 0.3 µM.
On the same counts, the results for `CC(C)(C)OC(=O)N1CCC(n2ncc3c(N4CCOCC4)nc(-c4ccc(NC(=O)Nc5ccon5)cc4)nc32)CC1` [Compound 882, tert-butyl 4-(6-{4-[(isoxazol-3-ylcarbamoyl)amino]phenyl}-4-morpholin-4-yl-1H-pyrazolo[3,4-d]pyrimidin-1-yl)piperidine-1-carboxylate] are 0.113 µM, 0.07 µM and 0.49 µM.
For `Cc1cc(NC(=O)Nc2ccc(-c3nc(N4CCOCC4)c4cnn(C5CCN(C(=O)OC(C)(C)C)CC5)c4n3)cc2)on1` [Compound 883, tert-butyl 4-[6-(4-{[(3-methylisoxazol-5-yl)carbamoyl]amino}phenyl)-4-morpholin-4-yl-1H-pyrazolo[3,4-d]pyrimidin-1-yl]piperidine-1-carboxylate], in that order: 0.16 µM, 0.27 µM and 1.3 µM.
For `CC(C)(C)OC(=O)N1CCC(n2ncc3c(N4CCOCC4)nc(-c4ccc(NC(=O)Nc5nccs5)cc4)nc32)CC1` [Compound 884, tert-butyl 4-(4-morpholin-4-yl-6-{4-[(1,3-thiazol-2-ylcarbamoyl)amino]phenyl}-1H-pyrazolo[3,4-d]pyrimidin-1-yl)piperidine-1-carboxylate], in that order: 0.264 µM, 0.26 µM and 1.6 µM.
Consider `CC(C)(C)OC(=O)N1CCC(n2ncc3c(N4CCOCC4)nc(-c4ccc(NC(=O)Nc5cnccn5)cc4)nc32)CC1` [Compound 885, tert-butyl 4-(4-morpholin-4-yl-6-{4-[(pyrazin-2-ylcarbamoyl)amino]phenyl}-1H-pyrazolo[3,4-d]pyrimidin-1-yl)piperidine-1-carboxylate], for which the results for the IC50 in experiment [1], in experiment [2] and in experiment [3] were 0.716 µM, 7.3 µM and 24 µM, respectively.
